Experimental data: US20230226016A1, “AGENTS AND METHODS FOR TREATING TAUOPATHIES” (The Regents of University of California, priority 2020, published 2023)

Key:
crude AD brain extract = test: Seeding by crude AD brain extract in tau biosensor cells, Ferumoxytol conjugates, no pre-incubation; type: cell-based, human; settings: mixed with extract and immediately transfected
From the text: (A) Seeding by crude AD brain extract measured in tau biosensor cells that were co-transfected with nanoparticles coupled to EGCG by linkers of varying length. (B-C) Negative-stain electron micrographs of EGCG-conjugated and non-conjugated nanoparticles. Nanoparticle coupled with EGCG analog 5c (B) cluster with fibrils of AD-tau. No clustering is seen between non-conjugated nanoparticles and AD-tau fibrils (C).
We tested the activity of Ferumoxytol conjugated EGCG analogs using the biosensor cell assay described above, except we omitted the pre-incubation step such that our assay more closely resembled the scenario of therapeutic intervention, for which there is no pre-incubation period. Nanoparticle conjugated EGCG derivative was mixed with crude AD brain extract and immediately transfected into tau biosensor cells.

AD crude brain extracts = test: Seeding by crude AD brain extract pre-treated with inhibitor, tau biosensor cells (Example 5); type: cell-based, human; settings: 10 μM final on cells, pre-incubated 16-18 hours
From the text: (A) Seeding by crude AD brain extract pre-treated with EGCG or experimental linker-conjugated analogs, as indicated. Inhibitor activity is read-out by measuring seeding in tau biosensor cells. Seeding is taken as a proxy for the fibril load that is contained within the AD crude brain extracts. Reduction in fibril load following treatment with experimental linker-conjugated analogs of EGCG reduces prion-like seeding by AD-tau nearly as effectively as EGCG itself. (B) Representative fluorescence images of tau biosensor cells experiments from A. Intracellular aggregates seeded by crude AD brain extracts are identified as puncta (green dots in the “No inhibitor” treated sample, left fluorescence micrograph). Inhibitor treatment reduces the number of puncta (right fluorescence micrograph). The number of puncta as a function of inhibitor pre-treatment is plotted in A.
We next tested if the D-ring site of triazole-linked amino PEGylation would interfere with tau fibril disaggregation observed for EGCG. […] Crude extract of autopsied brain tissue of a donor with AD (prepared as described in the SI) were pre-incubated with inhibitors (10 μM final concentration on cells) for 16-18 hours and resulting homogenates were added to the cells for imaging 3 days later.

[1] = test system: tau fibrils purified from AD brain; test: Inhibition of seeding in tau-K18 biosensor cells, AD brain purified tau fibrils as seeds; settings: 10 μM inhibitor, overnight preincubation, seeding measured 3 days after transfection
Procedure: (§2) (a) Seeding following overnight preincubation of AD brain purified tau fibrils with a final inhibitor concentration of 10 μM. Seeding was measured 3 days after transfecting biosensor cells with fibril-inhibitor complexes. […] Error bars show the standard deviation of triplicate measurements. […] Seeding (expressed as 10 power) was measured as in a, and IC50 values were calculated from dose-response plots. […] Each column represents the inhibitor response of a different donor. Inhibitor concentrations were 10 μM. Responses to inhibitors were normalized to seeding in the absence of inhibitor, abbreviated “No Inh”, and normalized seeding values for each inhibitor were plotted from maximal inhibitor response (low fractional seeding, left) to minimal response (seeding approaching a value of 1.0, right) for each of the indicated inhibitors.
(§3) After twenty minutes, 10 μl of fibrils were added to 90 μl of tau biosensor cells. The number of seeded aggregates was determined by imaging the entire well of a 96-well plate in triplicate using a Celigo Image Cytometer (Nexcelom) in the YFP channel. Aggregates were counted using ImageJ^45 by subtracting the background fluorescence from unseeded cells and then counting the number of peaks with fluorescence above background using the built-in Particle Analyzer. […]

[2] = molecular target: fibrils of recombinant tau40 (Homo sapiens, UniProt P10636); test: EGCG dose dependence on seeding in tau biosensor cells, fibrils of recombinant tau40 as seeds
fibrils of recombinant tau40, sequence (P10636 1-441 isoform P10636-8): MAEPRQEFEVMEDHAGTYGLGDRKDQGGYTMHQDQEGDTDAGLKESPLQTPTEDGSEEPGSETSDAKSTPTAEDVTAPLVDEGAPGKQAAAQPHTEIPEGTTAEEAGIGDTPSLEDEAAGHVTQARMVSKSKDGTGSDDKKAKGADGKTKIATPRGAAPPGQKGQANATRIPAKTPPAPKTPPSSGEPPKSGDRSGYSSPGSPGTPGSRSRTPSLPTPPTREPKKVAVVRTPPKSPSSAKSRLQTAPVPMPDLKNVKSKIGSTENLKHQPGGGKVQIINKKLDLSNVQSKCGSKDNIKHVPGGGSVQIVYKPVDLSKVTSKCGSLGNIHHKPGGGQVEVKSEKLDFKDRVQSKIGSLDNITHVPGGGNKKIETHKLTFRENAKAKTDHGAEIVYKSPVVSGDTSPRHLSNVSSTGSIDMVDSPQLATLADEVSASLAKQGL
Procedure: Error bars show the standard deviation of triplicate measurements. […] (e) EGCG dose dependence on seeding by fibrils of recombinant tau40. Seeding (expressed as 10 power) was measured as in a, and IC50 values were calculated from dose-response plots.
After twenty minutes, 10 μl of fibrils were added to 90 μl of tau biosensor cells. The number of seeded aggregates was determined by imaging the entire well of a 96-well plate in triplicate using a Celigo Image Cytometer (Nexcelom) in the YFP channel. Aggregates were counted using ImageJ^45 by subtracting the background fluorescence from unseeded cells and then counting the number of peaks with fluorescence above background using the built-in Particle Analyzer. The number of aggregates was normalized to the confluence of each well, and dose-response plots were generated by calculating the average and standard deviations from triplicate measurements. For high quality images, cells were photographed on a ZEISS Axio Observer D1 fluorescence microscope using the YFP fluorescence channel.

PHFE2 fibrils = PHFE2 fibrils (Homo sapiens, UniProt P10636); test: ThT measurement of PHFE2 peptide fibrils; settings: 5 mM EGCG, 30 mM fibrils, 30 min incubation
Procedure: (c) ThT signal of fibrils formed from PHFE2 peptide without EGCG, or following 30 min incubation. Error bars show the standard deviation of triplicate measurements.
Fibrils were grown at 37° C. in an orbital shaker with shaking at 350 rpm for 3-4 weeks. Solutions were removed from shaking and heat upon appearance of fibrils, confirmed by negative stain EM. For ThT experiments, fibrils were diluted to 30 mM in PBS, and ThT was added to a final concentration of 40 μM. EGCG was added from a concentrated stock to a final concentration of 5 mM where indicated. ThT measurements were carried out as described above, except readings were taken from a 384-well plate with a volume of 35 μl.

[3] = test system: tau fibrils purified from AD brain tissue; test: Negative stain electron microscopy of AD brain-derived tau fibrils; parameters: species or system human; settings: 100 μM EGCG, overnight, 37° C.
Procedure: (§1) (a) Isothermal titration calorimetry (ITC) of 750 μM EGCG into 75 μM recombinant tau-K18+ fibrils. The binding isotherm was fit using a standard 1 site binding model. (b) ThT assay showing the effect EGCG or negative control, doxycycline, have on the aggregation of 20 μM tau-K18+ monomer^33, a construct that contains all of the residues that are observed in the AD tau fibril core^7,9. Note the sudden drop in ThT signal at 10 hrs (marked by a red arrow) for the sample containing EGCG. (c) Negative stain electron micrographs of 75 μM recombinant tau-K18+ fibrils prior to incubation with EGCG (top) or following 1 or 3 hour incubation with a two-fold molar excess of EGCG at room temperature, as indicated. (d) As in c except EGCG micrographs of tau are of fibrils purified from AD brain tissue and EGCG treatments were carried out at a concentration of 100 μM for a 3 hour or overnight duration at 37° C., as indicated.
To prepare specimens of AD brain-derived tau fibrils for structural studies, we examined negatively stained EM grids of purified tau fibrils from the frontal cortex of AD donor 1 (FIG. 1a) at various times following incubation with EGCG. AD brain-derived tau fibrils were more robust than recombinant tau fibrils and disaggregation was accelerated by incubation at 37° C. […]

[4] = molecular target: T1, recombinant tau-K18+ fibrils (Homo sapiens, UniProt P10636); test: Isothermal titration calorimetry (ITC); settings: 750 μM EGCG into 75 μM fibrils, 1 site binding model
T1 sequence (P10636 561-697): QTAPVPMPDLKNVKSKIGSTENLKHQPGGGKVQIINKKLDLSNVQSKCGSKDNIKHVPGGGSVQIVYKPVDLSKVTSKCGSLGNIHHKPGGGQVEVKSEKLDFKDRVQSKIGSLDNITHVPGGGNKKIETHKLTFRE
Procedure: as §1
Human Tau tau-K18+(residues Q244-E380 of 4R tau) was expressed in a pNG2 vector in BL21-Gold E. coli cells grown in LB to an OD600=0.8. Cells were induced with 0.5 mM IPTG for 3 hours at 37° C. and lysed by sonication in 20 mM MES buffer (pH 6.8) with 1 mM EDTA, 1 mM MgCl2, 1 mM DTT and HALT protease inhibitor before addition of NaCl 500 mM final concentration. […]

tau-K18+ monomer = molecular target: T2, tau-K18+ monomer (Homo sapiens, UniProt P10636); test: ThT aggregation kinetics assay; type: biochemical; settings: 20 μM tau-K18+ monomer, equimolar inhibitor
T2 construct: Human Tau tau-K18+(residues Q244-E380 of 4R tau); made in house; host or cells: E. coli BL21-Gold, pNG2 vector
T2 sequence (P10636 561-697): as above
Procedure: as §1
Concentrated tau-K18+ was diluted into PBS buffer (pH 7.4) to a final concentration of 20 μM with an equimolar ratio of indicated small molecule inhibitor. […] ThT fluorescence was measured with excitation and emission wavelengths of 440 and 480 nm, and averaged curves were generated from triplicate measurements as indicated in the figure legend. […]

[5] = test system: crude brain extracts from donors with PSP; test: Inhibition of seeding by crude PSP brain extracts in tau biosensor cells; settings: 10 μM, N=7 donors
Procedure: as §2, §3

[6] = test system: crude brain extracts from donors with AD; test: Inhibition of seeding by crude AD brain extracts in tau biosensor cells; settings: 10 μM
Procedure: as §2, §3

[7] = molecular target: T1, recombinant tau-K18+ fibrils; test: Negative stain electron microscopy of recombinant tau fibrils; settings: 75 μM fibrils, two-fold molar excess of EGCG, 3 hr, room temperature
Procedure: as §1

**Q.** How did the “inhibition of seeding by crude AD brain extract, Ferumoxytol conjugated analogs” value (crude AD brain extract) turn out when NCCOCCn1cc(COc2c(O)cc(C(=O)O[C@@H]3Cc4c(O)cc(O)cc4O[C@@H]3c3cc(O)c(O)c(O)c3)cc2O)nn1 [Compound 5a, (2R,3R)-5,7-dihydroxy-2-(3,4,5-trihydroxyphenyl)chroman-3-yl 4-((1-(2-(2-aminoethoxy)ethyl)-H-1,2,3-triazol-4-yl)methoxy)-3,5-dihydroxybenzoate] was run?
**A.** The value was < 50%.

**Q.** Which “inhibition of seeding by AD brain extracts compared with EGCG” value (AD crude brain extracts) does the source give for NCCOCCOCCOCCn1cc(COc2c(O)cc(C(=O)O[C@@H]3Cc4c(O)cc(O)cc4O[C@@H]3c3cc(O)c(O)c(O)c3)cc2O)nn1 [Compound 5c, (2R,3R)-5,7-dihydroxy-2-(3,4,5-trihydroxyphenyl)chroman-3-yl 4-((1-(2-(2-(2-(2-aminoethoxy)ethoxy)ethoxy)ethyl)-H-1,2,3-triazol-4-yl)methoxy)-3,5-dihydroxybenzoate] here?
**A.** Its value is “potency nearly on par with EGCG itself”.

**Q.** For O=C(O[C@@H]1Cc2c(O)cc(O)cc2O[C@@H]1c1ccc(O)c(O)c1)c1cc(O)c(O)c(O)c1 [ECG], which “inhibition of seeding by AD brain extracts compared with EGCG” value (AD crude brain extracts) is on record?
**A.** The value was “inhibit seeding as well as the linker-conjugated analogs”.

**Q.** For O=C(O[C@@H]1Cc2c(O)cc(O)cc2O[C@@H]1c1cc(O)c(O)c(O)c1)c1cc(O)c(O)c(O)c1 [EGCG, (−)-epigallocatechin gallate], which “inhibition of seeding by tau fibrils purified from AD brain” value [1] is on record?
**A.** Its value is “most effective inhibitors of seeding”.

**Q.** What about the IC50 [2] of the same molecule?
**A.** Its IC50 is 0.4 µM.

**Q.** And the “ThT signal of PHFE2 fibrils after addition of inhibitor” value (PHFE2 fibrils)?
**A.** The value was “eliminated nearly any measurable ThT signal”.

**Q.** What about the “disaggregation of AD brain-derived tau fibrils (EM)” value [3] of the same molecule?
**A.** Its value is “most of the AD brain-derived tau fibrils are lost”.

**Q.** And the “stoichiometry N (ITC)” value [4]?
**A.** The value was 0.86.

**Q.** And the Kd ([4]; read-out: affinity (ITC))?
**A.** The Kd was 1.6 µM.

**Q.** And the “ThT signal of fibrils formed in the presence of inhibitor” value (tau-K18+ monomer)?
**A.** The value was “abruptly fell after reaching a plateau at 10 hr”.

**Q.** What about the “lag time of tau aggregation (ThT)” value (tau-K18+ monomer) of the same molecule?
**A.** The value was “no shift in the lag time”.

**Q.** And the “blocking of seeding by crude PSP brain extracts” value [5]?
**A.** Its value is “near perfect efficacy”.

**Q.** What about the “inhibition of seeding by crude PSP brain extracts” value ([5]; all patient samples) of the same molecule?
**A.** Its value is “at least 50%”.

**Q.** And the “fractional seeding by AD brain samples” value ([6]; 15 AD crude brain extracts, normalized to no inhibitor)?
**A.** Its value is “zero”.

**Q.** And the “inhibition of seeding by crude AD brain extracts” value ([6]; N=15 donors, all patient samples)?
**A.** The value was “at least 50%”.

**Q.** What about the “disaggregation of recombinant tau fibrils (EM)” value [7] of the same molecule?
**A.** The value was “virtually vanish”.
